Source: US8642629B2, “Naphthylacetic acids” (Hoffmann-La Roche Inc., priority 2008, dated 2014)

What follows are compounds tested against T1, human CRTH2 (Homo sapiens, UniProt Q9Y5Y4) (assay: Human CRTH2 Receptor Binding Assay (whole cell, [3H]ramatroban competition)). Conditions: CHO-K1 cells expressing human CRTH2 and G-alpha16; 20 nM [3H]ramatroban; 1 hour, room temperature.
T1 construct: expressed in transfected cells; host or cells: CHO-K1
T1 sequence (Q9Y5Y4 1-395): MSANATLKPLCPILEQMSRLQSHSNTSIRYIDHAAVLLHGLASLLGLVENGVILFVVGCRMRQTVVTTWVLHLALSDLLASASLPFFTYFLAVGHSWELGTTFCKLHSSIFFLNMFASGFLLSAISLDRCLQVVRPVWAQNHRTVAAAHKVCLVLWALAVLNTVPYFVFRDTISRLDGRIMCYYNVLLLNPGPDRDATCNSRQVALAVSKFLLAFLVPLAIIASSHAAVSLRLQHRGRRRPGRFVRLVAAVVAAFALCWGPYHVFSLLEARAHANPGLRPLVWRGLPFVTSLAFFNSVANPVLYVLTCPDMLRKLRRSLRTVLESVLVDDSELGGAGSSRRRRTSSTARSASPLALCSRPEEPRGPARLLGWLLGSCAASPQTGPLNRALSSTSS
Text: A whole cell receptor binding assay using [^3H]ramatroban as the competing radioactive ligand was employed to evaluate the compound binding activity to human CRTH2. The radioactive ligand [^3H]ramatroban was synthesized according to Sugimoto et. al. (Eur. J. Pharmacol. 524, 30-37, 2005) to a specific activity of 42 Ci/mmol.
A cell line stably expressing human CRTH2 was established by transfecting CHO-K1 cells with two mammalian expression vectors that harbored human CRTH2 and G-alpha16 cDNAs, respectively, using FuGene® 6 transfection reagent (from Roche). Stable clones expressing CRTH2 were selected by staining each clone with BM16 (BD Pharmingen™ from BD Biosciences, a division of Becton, Dickinson and Company), which is a rat monoclonal antibody to human CRTH2. The cells were maintained as monolayer cultures in Ham's F-12 medium containing 10% fetal bovine serum, 100 units/mL penicillin, 100 μg/mL streptomycin, 2 mM glutamine, 0.5 mg/mL G418 (geneticin) for CRTH2, and 0.2 mg/mL hygromycin-B (for G-alpha 16). For whole cell receptor binding assay, the monolayer cells were rinsed once with PBS (phosphate buffered saline), dissociated using ethylenediaminetetraacetate (Versene™ EDTA from Lonza Inc.), and suspended in PBS containing 10 mM MgCl2 and 0.06% BSA (bovine serum albumin) at 1.5×10^6 cells/mL.
The binding reactions (0.2 mL) were performed in 96-well plates at room temperature in PBS containing 1.5×10^5 cells, 10 mM MgCl2, 0.06% BSA, 20 nM [^3H]ramatroban, and test compound at various concentrations. After 1 hour of binding reactions, the cells were harvested on GF™/B filter microplates (microtiter plates with embedded glass fiber from PerkinElmer, Inc.) and washed 5 times with PBS using a Filtermate™ Harvester (a cell harvester that harvests and washes cells from microplates from PerkinElmer, Inc.). The radioactivities bound to the cells were determined using a microplate scintillation counter (TopCount® NXT, from PerkinElmer, Inc.) after adding 50 μL of Microscint™ 20 scintillation fluid (from PerkinElmer, Inc.) to each well of the filter plates. The radioactivity from non-specific binding was determined by replacing compound with 10 μM of 15(R)-15-methyl PGD2 (from Cayman Chemical Company) in the reaction mixtures. The radioactivity bound to the cells in the absence of compound (total binding) was determined by replacing compound with 0.25% of DMSO (dimethyl sulfoxide) in the reaction mixture. Specific binding data were obtained by subtracting the radioactivity of non-specific binding from each binding data.
The IC50 value is defined as the concentration of the tested compound that is required for 50% inhibition of total specific binding. In order to calculate the IC50 value, the percent inhibition data were determined for 7 concentrations for each compound. The percent inhibition for a compound at each concentration was calculated according to the following formula, [1−(specific binding in the presence of compound)/(total specific binding)]×100. The IC50 value was then obtained by fitting the percent inhibition data to a sigmoidal dose-response (4 parameter logistic) model in the XLfit® software Excel add-in program [from ID Business Solutions Ltd., model 205, where F(x)=(A+(B−A)/(1+((C/x)^D)))].

Row | SMILES | IC50 [nM]
1 | Cc1c(CC(=O)O)cc2ccc(F)cc2c1Oc1ccc(C#N)cc1 [Example 2-44, [4-(4-cyano-phenoxy)-6-fluoro-3-methyl-naphthalen-2-yl]-acetic acid] | 10
2 | CCS(=O)(=O)c1ccc(Oc2cc(CC(=O)O)cc3ccc(OC(F)(F)F)cc23)nc1 [Example 1-18, [4-(5-Ethanesulfonyl-pyridin-2-yloxy)-6-trifluoromethoxy-naphthalen-2-yl]-acetic acid] | 2.6
3 | CCS(=O)(=O)c1ccc(Oc2cc(CC(=O)O)cc3ccc(Br)cc23)nc1 [Example 12-1, [6-Bromo-4-(5-ethanesulfonyl-pyridin-2-yloxy)-naphthalen-2-yl]-acetic acid] | 5.3
4 | Cc1cc(S(C)(=O)=O)cnc1Oc1c(C)c(CC(=O)O)cc2ccc(F)cc12 [Example 2-34, [6-fluoro-4-(5-methanesulfonyl-3-methyl-pyridin-2-yloxy)-3-methyl-naphthalen-2-yl]-acetic acid] | 3.1
5 | Cc1c(CC(=O)O)cc2ccc(F)cc2c1Oc1ccc(S(=O)(=O)c2ccc(Cl)cc2)cc1 [Example 2-31, {4-[4-(4-chloro-benzenesulfonyl)-phenoxy]-6-fluoro-3-methyl-naphthalen-2-yl}-acetic acid] | 3.6
6 | Cc1c(CC(=O)O)cc2ccc(F)cc2c1Oc1ccc(S(=O)(=O)N2CC3(COC3)C2)cc1 [Example 2-43, {6-fluoro-3-methyl-4-[4-(2-oxa-6-aza-spiro[3.3]heptane-6-sulfonyl)-phenoxy]-naphthalen-2-yl}-acetic acid] | 1.8
7 | Cc1cc(Oc2c(C)c(CC(=O)O)cc3ccc(F)cc23)ccc1S(C)(=O)=O [Example 2-6, [6-fluoro-4-(4-methanesulfonyl-3-methyl-phenoxy)-3-methyl-naphthalen-2-yl]-acetic acid] | 2.7
8 | Cc1cc(Oc2c(C)c(CC(=O)O)cc3ccc(Cl)cc23)ccc1S(C)(=O)=O [Example 2-8, [6-chloro-4-(4-methanesulfonyl-3-methyl-phenoxy)-3-methyl-naphthalen-2-yl]-acetic acid] | 4.5

Results, then the compound that gave them:

Row | IC50 [nM] | SMILES
9 | 2.6 | Cc1c(CC(=O)O)cc2ccc(F)cc2c1Nc1ccc(S(C)(=O)=O)cc1 [Example 8-2, [6-fluoro-4-(4-methanesulfonyl-phenylamino)-3-methyl-naphthalen-2-yl]-acetic acid]
10 | 5.6 | CCS(=O)(=O)c1ccc(Oc2cc(CC(=O)O)cc3ccc(F)cc23)nc1 [Example 1-11, [4-(5-ethanesulfonyl-pyridin-2-yloxy)-6-fluoro-naphthalen-2-yl]-acetic acid]
11 | 9.3 | O=C(O)Cc1cc(Oc2ccc(S(=O)(=O)C3CC3)cc2)c2cc(F)ccc2c1 [Example 1-5, [4-(4-cyclopropanesulfonyl-phenoxy)-6-fluoro-naphthalen-2-yl]-acetic acid]
12 | 73.7 | CCS(=O)(=O)c1ccc(Oc2cc(CC(=O)O)cc3ccc(C)cc23)nc1 [Example 13-1, [4-(5-Ethanesulfonyl-pyridin-2-yloxy)-6-methyl-naphthalen-2-yl]-acetic acid]
13 | 2.8 | Cc1c(CC(=O)O)cc2ccc(F)cc2c1Oc1ccc(S(=O)(=O)C(C)C)cc1 [Example 2-4, {6-fluoro-3-methyl-4-[4-(propane-2-sulfonyl)-phenoxy]-naphthalen-2-yl}-acetic acid]
14 | 3.1 | CS(=O)(=O)c1ccc(Oc2cc(CC(=O)O)cc3ccc(F)cc23)cc1 [Example 1-2, [6-fluoro-4-(4-methanesulfonyl-phenoxy)-naphthalen-2-yl]-acetic acid]
15 | 2 | CCN(CC)S(=O)(=O)c1ccc(Oc2c(C)c(CC(=O)O)cc3ccc(F)cc23)cc1 [Example 2-39, [4-(4-diethylsulfamoyl-phenoxy)-6-fluoro-3-methyl-naphthalen-2-yl]-acetic acid]
16 | 2.5 | Cc1c(CC(=O)O)cc2ccc(F)cc2c1Oc1ccc(S(C)(=O)=O)cc1Cl [Example 2-20, [4-(2-chloro-4-methanesulfonyl-phenoxy)-6-fluoro-3-methyl-naphthalen-2-yl]-acetic acid]
